Patent US20240336594A1, “SIX-MEMBERED ARYL OR HETEROARYL AMIDES, AND COMPOSITION AND USE THEREOF” (BETTA PHARMACEUTICALS CO., LTD, priority 2021, published 2024)
pIC50: −log10 of the molar value.

Tests used:
[1] = test system: IL-2 secretion of Jurkat cells (PMA/Ionomycin inducing); assay: ELISA method to detect IL-2 secretion induced by PMA/Ionomycin; type: cell-based; conditions: Homo sapiens, 20 h
Description: 12.5*10^3 Jurkat cells were seeded on a 96-well plate and incubated with various concentrations of compound solution for 30 min. Then, 500×PMA/Ionomycin stimulating factor was diluted with culture medium and added to the cell plate. […] The final concentrations of the compounds were 10000, 3333.3, 1111.1, 370.4, 123.5, 41.2, 13.7, 4.6, 1.5, 0 nM (The final concentration of DMSO is 0.5%). After incubation for 20 h, the supernatant was collected via centrifugation. The final IL-2 concentration was detected by ELISA method (IL-2 Duoset, R&D Systems, DY202). The signal value of each sample at a wavelength of 450 nm was collected by EnVision multifunctional microplate reader and converted to the IL-2 concentration via the ELISACalc.exe software. The IL-2 secretion inhibitory activity IC50 was fitted by GraphPad Prism software. The cell viability was tested simultaneously using the Cell-Titer Glo kit.
The compounds of the present invention show strong inhibitory effect on IL-2 secretion of Jurkat cells (PMA/Ionomycin inducing).

MALT1 = target: T1, MALT1 (Homo sapiens, UniProt Q9UDY8); assay: MALT1 protease inhibition assay (AMC-labeled peptide, fluorescence 360/460); type: biochemical; conditions: substrate Ac-LRSR-AMC, 15 min preincubation, 90 min at 25° C.
T1 sequence (Q9UDY8 1-824): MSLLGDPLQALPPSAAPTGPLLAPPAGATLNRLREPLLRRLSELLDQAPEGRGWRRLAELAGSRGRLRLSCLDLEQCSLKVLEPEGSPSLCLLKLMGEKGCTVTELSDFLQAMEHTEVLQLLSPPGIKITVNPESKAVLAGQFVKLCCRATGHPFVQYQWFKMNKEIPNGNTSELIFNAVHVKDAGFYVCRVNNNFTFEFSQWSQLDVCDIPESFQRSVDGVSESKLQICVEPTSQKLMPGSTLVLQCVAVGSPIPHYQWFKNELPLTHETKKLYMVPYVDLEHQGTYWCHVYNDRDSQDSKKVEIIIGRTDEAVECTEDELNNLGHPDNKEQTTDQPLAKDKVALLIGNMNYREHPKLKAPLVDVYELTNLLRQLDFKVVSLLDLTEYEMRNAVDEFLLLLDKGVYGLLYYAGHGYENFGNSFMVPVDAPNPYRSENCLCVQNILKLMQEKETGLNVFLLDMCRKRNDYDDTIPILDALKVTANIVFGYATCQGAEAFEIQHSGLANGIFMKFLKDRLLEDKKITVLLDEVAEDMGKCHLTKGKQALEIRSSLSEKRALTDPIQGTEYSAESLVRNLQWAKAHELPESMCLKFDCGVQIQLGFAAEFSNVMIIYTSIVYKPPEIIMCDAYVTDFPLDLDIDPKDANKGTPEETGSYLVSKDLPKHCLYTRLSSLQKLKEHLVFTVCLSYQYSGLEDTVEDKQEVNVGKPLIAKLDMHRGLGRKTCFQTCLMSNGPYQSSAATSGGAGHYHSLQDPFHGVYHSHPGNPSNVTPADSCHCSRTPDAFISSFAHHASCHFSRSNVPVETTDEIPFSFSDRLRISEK
In short: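 Fluorogenic AMC-peptide cleavage read after 90 min at 25 °C, following a 15 min enzyme–compound preincubation at 25 °C in citrate protease buffer plus DTT. Compounds run as ten 3-fold dilutions in duplicate; percent inhibition relative to enzyme-only and enzyme-free controls, fitted to IC50.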

Compound: Cc1nc(-c2ccc(F)cc2Cl)ncc1C(=O)Nc1cnc(-n2nccn2)c(C(F)(F)F)c1 [Example A12]
- pIC50 [1]: 6.55

Compound: Cc1cc(-c2ccc(F)cc2Cl)ccc1C(=O)Nc1cnc(-n2nccn2)c(C(F)(F)F)c1 [Example A16, N-(6-(2H-1,2,3-triazol-2-yl)-5-(trifluoromethyl)pyridin-3-yl)-2′-chloro-4′-fluoro-3-methyl-[1,1′-biphenyl]-4-carboxamide]
- pIC50 [1]: 6.71

Compound: O=C(Nc1cnc(-n2nccn2)c(C(F)(F)F)c1)c1ccc(-c2ccc(F)cc2Cl)cc1Cl [Example A17, N-(6-(2H-1,2,3-triazol-2-yl)-5-(trifluoromethyl)pyridin-3-yl)-2′,3-dichloro-4′-fluoro-[1,1′-biphenyl]-4-carboxamide]
- pIC50 [1]: 6.72

Compound: O=C(Nc1cnc(-n2nccn2)c(C(F)(F)F)c1)c1cnc(-c2ccc(F)cc2Cl)cc1Cl [Example A18, N-(6-(2H-1,2,3-triazol-2-yl)-5-(trifluoromethyl)pyridin-3-yl)-4-chloro-6-(2-chloro-4-fluorophenyl)nicotinamide]
- pIC50 [1]: 6.22

Compound: O=C(Nc1cnc(-n2nccn2)c(C(F)(F)F)c1)c1ccc(-c2ccc(F)cc2Cl)cc1C1CC1 [Example A19, N-(6-(2H-1,2,3-triazol-2-yl)-5-(trifluoromethyl)pyridin-3-yl)-2′-chloro-3-cyclopropyl-4′-fluoro-[1,1′-biphenyl]-4-carboxamide]
- pIC50 [1]: 6.20

Compound: O=C(Nc1cnc(-n2nccn2)c(Cl)c1)c1ccc(-c2ccccc2Cl)cc1Cl [Example A42]
- pIC50 [1]: 6.33

Compound: COc1ccccc1-c1ccc(C(=O)Nc2cnc(-n3nccn3)c(C(F)(F)F)c2)c(C)c1 [Example A64]
- pIC50 [1]: 6.33

Compound: COc1ccccc1-c1cc(Cl)c(C(=O)Nc2cnc(-n3nccn3)c(C(F)(F)F)c2)cc1F [Example A67]
- pIC50 [1]: 6.49

Compound: Nc1ccccc1-c1cc(Cl)c(C(=O)Nc2cnc(-n3nccn3)c(C(F)(F)F)c2)cc1F [Example A69]
- pIC50 [1]: 6.71

Compound: O=C(Nc1cnc(-n2nccn2)c(Cl)c1)c1ccc(-c2ccncc2Cl)cc1Cl [Example A100]
- pIC50 [1]: 6.43

Compound: O=C(Nc1cnc(-n2nccn2)c(Cl)c1)c1ccc(-c2ccc(F)cc2Br)cc1Cl [Example A102]
- pIC50 [1]: 6.81

Compound: COc1cc(F)ccc1-c1ccc(C(=O)Nc2cnc(-n3nccn3)c(Cl)c2)c(Cl)c1 [Example A104]
- pIC50 [1]: 6.53

Compound: O=C(Nc1cnc(-n2nccn2)c(C(F)(F)F)c1)c1cc(F)c(-c2ccc(F)cc2Cl)cc1Cl [Example A105]
- pIC50 [1]: 6.87

Compound: O=C(Nc1cnc(-n2nccn2)c(C(F)(F)F)c1)c1cc(F)c(-c2ccccc2Cl)cc1Cl [Example A106, N-(6-(2H-1,2,3-triazol-2-yl)-5-(trifluoromethyl)pyridin-3-yl)-2′,5-dichloro-2-fluoro-[1,1′-biphenyl]-4-carboxamide]
- pIC50 [1]: 6.58

Compound: Nc1ccccc1-c1cc(Cl)c(C(=O)Nc2cnc(-n3nccn3)c(Cl)c2)cc1F [Example A109, 2′-amino-5-chloro-N-(5-chloro-6-(2H-1,2,3-triazol-2-yl)pyridin-3-yl)-2-fluoro-[1,1′-biphenyl]-4-carboxamide]
- pIC50 (MALT1): ≥ 8.00
- pIC50 [1]: 7.03

Compound: Nc1ccccc1-c1cc(F)c(C(=O)Nc2cnc(-n3nccn3)c(C(F)(F)F)c2)cc1Cl [Example A110]
- pIC50 (MALT1): ≥ 8.00
- pIC50 [1]: 6.73

Compound: Nc1ccccc1-c1cc(Cl)c(C(=O)Nc2cnc(-n3nccn3)c(C(F)(F)F)c2)cc1Cl [Example A111, N-(6-(2H-1,2,3-triazol-2-yl)-5-(trifluoromethyl)pyridin-3-yl)-2′-amino-2,5-dichloro-[1,1′-biphenyl]-4-carboxamide]
- pIC50 [1]: 6.55

Compound: COc1cc(F)ccc1-c1cc(Cl)c(C(=O)Nc2cnc(-n3nccn3)c(C(F)(F)F)c2)cc1F [Example A112, N-(6-(2H-1,2,3-triazol-2-yl)-5-(trifluoromethyl)pyridin-3-yl)-5-chloro-2,4′-difluoro-2′-methoxy-[1,1′-biphenyl]-4-carboxamide]
- pIC50 [1]: 6.63

Compound: Cc1cc(-c2ccc(F)cc2N)c(F)cc1C(=O)Nc1cnc(-n2nccn2)c(Cl)c1 [Example A113]
- pIC50 (MALT1): ≥ 8.00
- pIC50 [1]: 7.46

Compound: Cc1cc(-c2ccc(F)cc2Br)c(F)cc1C(=O)Nc1cnc(-n2nccn2)c(Cl)c1 [Example A114]
- pIC50 (MALT1): ≥ 8.00
- pIC50 [1]: 7.47

Compound: Cc1cc(-c2ccc(F)cc2Cl)c(F)cc1C(=O)Nc1cnc(-n2nccn2)c(Cl)c1 [Example A115, 2′-chloro-N-(5-chloro-6-(2H-1,2,3-triazol-2-yl)pyridin-3-yl)-2,4′-difluoro-5-methyl-[1,1′-biphenyl]-4-carboxamide]
- pIC50 (MALT1): ≥ 8.00
- pIC50 [1]: 7.40

Compound: Cc1cc(-c2ccc(F)cc2F)c(F)cc1C(=O)Nc1cnc(-n2nccn2)c(Cl)c1 [Example A116, N-(5-chloro-6-(2H-1,2,3-triazol-2-yl)pyridin-3-yl)-2,2′,4′-trifluoro-5-methyl-[1,1′-biphenyl]-4-carboxamide]
- pIC50 (MALT1): ≥ 8.00
- pIC50 [1]: 7.27

Compound: COc1ccccc1-c1cc(C)c(C(=O)Nc2cnc(-n3nccn3)c(Cl)c2)cc1F [Example A117, N-(5-chloro-6-(2H-1,2,3-triazol-2-yl)pyridin-3-yl)-2-fluoro-2′-methoxy-5-methyl-[1,1′-biphenyl]-4-carboxamide]
- pIC50 [1]: 6.74

Compound: COc1cc(F)ccc1-c1cc(C)c(C(=O)Nc2cnc(-n3nccn3)c(Cl)c2)cc1F [Example A118, N-(5-chloro-6-(2H-1,2,3-triazol-2-yl)pyridin-3-yl)-2,4′-difluoro-2′-methoxy-5-methyl-[1,1′-biphenyl]-4-carboxamide]
- pIC50 [1]: 7.09

Compound: Nc1ccccc1-c1cc(F)c(C(=O)Nc2cnc(-n3nccn3)c(Cl)c2)cc1Cl [Example A119, 2′-amino-2-chloro-N-(5-chloro-6-(2H-1,2,3-triazol-2-yl)pyridin-3-yl)-5-fluoro-[1,1′-biphenyl]-4-carboxamide]
- pIC50 (MALT1): ≥ 8.00
- pIC50 [1]: 6.33

Compound: Nc1cc(F)ccc1-c1cc(F)c(C(=O)Nc2cnc(-n3nccn3)c(Cl)c2)cc1Cl [Example A120, 2′-amino-2-chloro-N-(5-chloro-6-(2H-1,2,3-triazol-2-yl)pyridin-3-yl)-4′,5-difluoro-[1,1′-biphenyl]-4-carboxamide]
- pIC50 (MALT1): ≥ 8.00
- pIC50 [1]: 7.24

Compound: C#Cc1cnccc1-c1cc(Cl)c(C(=O)Nc2cnc(C(=O)NCC(F)(F)F)c(Cl)c2)cc1F [Example A429, 3-chloro-5-(2-chloro-4-(3-ethynylpyridin-4-yl)-5-fluorobenzamido)-N-(2,2,2-trifluoroethyl)picolinamide]
- pIC50 [1]: 6.59

Compound: CC(=O)c1cncc(N)c1-c1cc(Cl)c(C(=O)Nc2cnc(-n3nccn3)c(Cl)c2)cc1F [Example A529, 4-(3-acetyl-5-aminopyridin-4-yl)-2-chloro-N-(5-chloro-6-(2H-1,2,3-triazol-2-yl)pyridin-3-yl)-5-fluorobenzamide]
- pIC50 [1]: 6.68

Compound: C#Cc1cnc(C#N)c(N)c1-c1cc(Cl)c(C(=O)Nc2cnc(-n3nccn3)c(C(F)(F)F)c2)cc1F [Example A554, N-(6-(2H-1,2,3-triazol-2-yl)-5-(trifluoromethyl)pyridin-3-yl)-4-(3-amino-2-cyano-5-ethynylpyridin-4-yl)-2-chloro-5-fluorobenzamide]
- pIC50 (MALT1): ≥ 8.00

Compound: C#Cc1c(F)nc(C)c(N)c1-c1cc(Cl)c(C(=O)Nc2cnc(-n3nccn3)c(C(F)(F)F)c2)cc1F [Example A556, N-(6-(2H-1,2,3-triazol-2-yl)-5-(trifluoromethyl)pyridin-3-yl)-4-(3-amino-5-ethynyl-6-fluoro-2-methylpyridin-4-yl)-2-chloro-5-fluorobenzamide]
- pIC50 (MALT1): ≥ 8.00

Compound: C#Cc1c(F)nc(F)c(N)c1-c1cc(Cl)c(C(=O)Nc2cnc(-n3nccn3)c(C(F)(F)F)c2)cc1F [Example A557, N-(6-(2H-1,2,3-triazol-2-yl)-5-(trifluoromethyl)pyridin-3-yl)-4-(3-amino-5-ethynyl-2,6-difluoropyridin-4-yl)-2-chloro-5-fluorobenzamide]
- pIC50 (MALT1): ≥ 8.00

Compound: Nc1c(Cl)ncc(Br)c1-c1cc(Cl)c(C(=O)Nc2cnc(-n3nccn3)c(C(F)(F)F)c2)cc1F [Example A558]
- pIC50 (MALT1): ≥ 8.00
